Columns and labels:
[1] = system: IFN-γ; experiment: Multiplex (MSD V-PLEX) cytokine release, InflammaSkin: IFN-γ; format: cell-based, human; conditions: Example 2; Day 7 supernatant; 1 μM Otezla or SCFA (45 μg/mL Ca-propionate + 1 mM Ca-/Mg-butyrate) systemic, 0.05% Betamethasone topical; vs untreated InflammaSkin
Experimental: (§1) A total of 16 biopsies of 15 mm diameter were produced from a single donor. Two NativeSkin® models with 12/15 mm silicon rings were produced from the biopsies according to standard procedures in place, and cultured under cell culture conditions (37° C., 5% CO2, max. humidity) for 7 days with 2 mL of standard NativeSkin® medium renewed every day. Fourteen PSO-InflammaSkin® models with 12/15 mm silicon rings were produced by inducing in situ activation and Th17/Th1 polarization of skin resident T cells with a proprietary cocktail, and cultured under cell culture conditions (37° C., 5% CO2, max. humidity) for 7 days with 2 mL of PSO-InflammaSkin® culture medium renewed every day. […]
(§2) Human pro-inflammatory cytokines released in the supernatant were quantified using the V-PLEX Human IL-17A Kit (MesoScale Discovery, reference: K151RFD-1) and V-PLEX Human custom Pro-inflammatory. […]
(§3) Samples were diluted four times for plate 2 and two times for plate 1. Samples and standards were assessed in duplicate. Plates were read on MesoScale Discovery Quickpleax SQ 120 plate reader and values expressed in pg/mL.
(§4) A statistical analysis was performed. […] First, the distribution's normality of the two compared group was assessed. […] If the two distributions were normal, the homogeneity of variances was assessed using a Fisher test on the variances. […]

[2] = system: TNF-α; experiment: ELISA analysis of TNF-α, InflammaSkin; format: cell-based, human; conditions: Example 2; Otezla-treated InflammaSkin; FIG. 20
[3] = system: IL-22; experiment: Multiplex (MSD V-PLEX) cytokine release, InflammaSkin: IL-22; format: cell-based, human; conditions: Example 2; Day 7 supernatant; 1 μM Otezla or SCFA systemic, 0.05% Betamethasone topical; vs untreated InflammaSkin
Experimental: as §1, §2, §3, §4

[4] = system: imiquimod (IMQ)-induced psoriasis model mice; experiment: Ear skin thickness, IMQ-induced psoriasis model in mice; format: in vivo, mouse
Experimental: Topical application of IMQ, a TLR7/8 ligand and potent immune activator induced and exacerbated psoriasis in mice. The mouse IMQ-induced psoriasis (IMQ Ps) model was initiated by a repeated topical application of Aldara© cream (containing 5% IMQ) over 6 consecutive days. Female Balb/c mice (9 weeks of age at reception, ordered with 20 g, Charles River, Sulzfeld, Germany; n=10 mice/group, exception healthy controls n=4) received daily a topical application of 62.5 mg of commercially available IMQ cream (5% Aldara©) on the beforehand (day −1) shaved (~2 cm×3 cm), depilated (Pilka© cream) back skin, and 7 mg on the outer right ear skin for 6 consecutive days, translating in a daily dose of approximately 3.5 mg IMQ. Healthy control mice were included in the study and were treated with vehicle cream (Vaseline; Bombastus-Werke AG) only instead of IMQ. Additionally, an IMQ disease control group was also included.
Before starting treatment on the day of disease induction (day 0), mice were randomized based on body weight to the respective group. […]
The added-up score (erythema plus scaling plus thickening), named disease severity score (scale 0-9), served then as marker for the severity of back skin inflammation. In addition, ear thickness of the right ear was determined daily by using an automatized caliper (Bayer AG, Germany).
Disease Severity Score was evaluated on a daily base starting with the induction of psoriasis by IMQ application (day 0) until the end (day 6) of the study. The extent of ear thickness of the IMQ-treated right ear was determined daily by using an automatized caliper (Bayer AG, Germany) as described in Example 4.
Ear thickening, one of the disease severity score parameters, was evaluated in IMQ-treated mice (FIG. 60 and FIG. 61). The extent of ear thickness of the IMQ-treated right ear was determined daily by using an automatized caliper (Bayer AG, Germany) as described in Example 4.

[5] = system: MIP-3α; experiment: Multiplex (MSD V-PLEX) cytokine release, InflammaSkin: MIP-3α; format: cell-based, human; conditions: Example 2; 1 μM Otezla systemic; compared to untreated InflammaSkin
Experimental: as §1, §2, §3, §4

[6] = system: TNF-α; experiment: Multiplex (MSD V-PLEX) cytokine release, InflammaSkin: TNF-α; format: cell-based, human
Experimental: A total of 16 biopsies of 15 mm diameter were produced from a single donor. Two NativeSkin® models with 12/15 mm silicon rings were produced from the biopsies according to standard procedures in place, and cultured under cell culture conditions (37° C., 5% CO2, max. humidity) for 7 days with 2 mL of standard NativeSkin® medium renewed every day. Fourteen PSO-InflammaSkin® models with 12/15 mm silicon rings were produced by inducing in situ activation and Th17/Th1 polarization of skin resident T cells with a proprietary cocktail, and cultured under cell culture conditions (37° C., 5% CO2, max. humidity) for 7 days with 2 mL of PSO-InflammaSkin® culture medium renewed every day.
From Day 1 to Day 6, models were systemically treated with 1 μM Otezla or Short Chain Fatty Acids (SCFAs), or topically treated with positive control 0.05% Betamethasone
In these experiments, the SCFAs administered were 45 μg/mL of Ca-propionate and 1 mM mixture of salts (Ca-butyrate and Mg-butyrate).
At Day 7, supernatants were collected and stored at −80° C. and skin models of all conditions were carefully unmolded. Skin biopsies were re-punched to eliminate the area under the silicon ring, fixed in 10% buffered formalin and processed for paraffin wax embedding.
Human pro-inflammatory cytokines released in the supernatant were quantified using the V-PLEX Human IL-17A Kit (MesoScale Discovery, reference: K151RFD-1) and V-PLEX Human TNFα Kit (MesoScale Discovery, reference: K151QWD-1). Values are expressed in pg/mL. For each condition, single values, mean and SEM were plotted using GraphPad Prism. Statistical analysis was performed using a One Way ANOVA test.
PSO-InflammaSkin® models were cultured and treated as described in Example 1. In these experiments, the SCFAs administered were 45 μg/mL of Ca-propionate and 1 mM mixture of salts (Ca-butyrate and Mg-butyrate).
Human pro-inflammatory cytokines released in the supernatant were quantified using the V-PLEX Human IL-17A Kit (MesoScale Discovery, reference: K151RFD-1) and V-PLEX Human custom Pro-inflammatory. Plate 1 comprised Proinflammatory Panel 1 (human) kit reference K15049 (panel IFN-γ and TNF-α). Plate 2 comprised TH17 Panel 1 (human) kit reference K15049 (panel IL-17A Gen B, IL-21, IL-22, IL-23, IL-27, IL-31, MIP-3α).
as §3
A statistical analysis was performed. Each condition was compared to the untreated InflammaSkin® condition. First, the distribution's normality of the two compared group was assessed. […] If the two distributions were normal, the homogeneity of variances was assessed using a Fisher test on the variances. […]

For `CCOc1cc([C@@H](CS(C)(=O)=O)N2C(=O)c3cccc(NC(C)=O)c3C2=O)ccc1OC` [Otezla, Apremilast], the IFN-γ secretion [1] was “significantly reduced”, the TNFα level (by ELISA) [2] was roughly 13 pg/mL and the IL-22 secretion [3] was “significantly reduced”. For the same molecule, the ear thickness ([4]; Example 7, Apremilast low dose (2.5 mg/kg BID), oral, alone) was “did not show any inhibitory influence on ear thickness”, the ear thickness ([4]; Example 7, Apremilast mid and high dose (5 and 7 mg/kg BID), oral, alone) was “inhibited” and the ear thickness ([4]; Example 12, day 6, Apremilast monotherapy, both doses (12 mg/kg and 25 mg/kg BID)) was “did not show any inhibitory influence on ear thickness at day 6”. The “increase of secretion of MIP-3a” value [5] was “about 50%”, the “increase of the release of TNF-α” value ([6]; Example 1, Day 7 supernatant, 1 μM Otezla systemic, vs untreated InflammaSkin) was roughly 2 fold and the TNFα secretion ([6]; Example 2, Day 7 supernatant, 1 μM Otezla or SCFA systemic, 0.05% Betamethasone topical, vs untreated InflammaSkin) was “significantly increased”. The “TNFα level (by MSD)” value ([6]; Example 2, Otezla-treated InflammaSkin (untreated about 1 μg/mL)) was “about 2 μg/mL”.

— patent US20260216109A1, “TREATMENT OF SKIN DISORDERS WITH SHORT CHAIN FATTY ACIDS” (Temple University-Of The Commonwealth System of Higher …, priority 2023, published 2026)
